Laboratory results from ChEMBL document CHEMBL5528088, “Design and Synthesis of Cyclolipopeptide Mimics of Dysoxylactam A and Evaluation of the Reversing Potencies against P-Glycoprotein-Mediated Multidrug Resistance” (J Med Chem, 2024).
In brackets after ≈: the same amount, converted by molar mass. Activity calls are given as the source filed them. The calls are words filed in the database; no cut-off is given here.

How the values were obtained:
NCI/ADR-RES [1] = test: Reversal effect on P-gp-mediated multidrug resistance in human NCI/ADR-RES cells assessed as inhibition of cell proliferation incubated for 72 hrs by SRB assay; assay type: functional, cell-based
KBv200 [2] = test: Inhibition of cell proliferation in human KBv200 cells incubated for 72 hrs by SRB assay; assay type: functional, cell-based; conditions: KBv200, 72 h
KBv200 [3] = test: Reversal effect on P-gp-mediated multidrug resistance in human KBv200 cells assessed as inhibition of cell proliferation incubated for 72 hrs by SRB assay; assay type: functional, cell-based; conditions: KBv200, 72 h
KBv200 [4] = test: Inhibition of cell proliferation in human KBv200 cells at 10 uM incubated for 72 hrs by SRB assay relative to control; assay type: functional
KBv200 [5] = test: Antitumor activity against human KBv200 cells xenografted in Balb/cA nude mouse assessed as decrease in tumor size at 8 mg/kg, iv administered on day 0,4,8 and measured for 14 days; assay type: functional, organism-based; conditions: time 14.0 day
[6] = Cmax in Sprague-Dawley rat at 30 mg/kg, po measured for 24 hrs by LC-MS analysis; assay type: ADME, organism-based; conditions: in vivo
[7] = target: Multidrug resistance-associated protein 1 (Homo sapiens, UniProt P33527); test: Inhibition of MRP1 (unknown origin) expressed in HEK293 cells assessed as increase in mitoxantrone accumulation by flow cytometry; assay type: cell-based
Multidrug resistance-associated protein 1, sequence (P33527 whole entry): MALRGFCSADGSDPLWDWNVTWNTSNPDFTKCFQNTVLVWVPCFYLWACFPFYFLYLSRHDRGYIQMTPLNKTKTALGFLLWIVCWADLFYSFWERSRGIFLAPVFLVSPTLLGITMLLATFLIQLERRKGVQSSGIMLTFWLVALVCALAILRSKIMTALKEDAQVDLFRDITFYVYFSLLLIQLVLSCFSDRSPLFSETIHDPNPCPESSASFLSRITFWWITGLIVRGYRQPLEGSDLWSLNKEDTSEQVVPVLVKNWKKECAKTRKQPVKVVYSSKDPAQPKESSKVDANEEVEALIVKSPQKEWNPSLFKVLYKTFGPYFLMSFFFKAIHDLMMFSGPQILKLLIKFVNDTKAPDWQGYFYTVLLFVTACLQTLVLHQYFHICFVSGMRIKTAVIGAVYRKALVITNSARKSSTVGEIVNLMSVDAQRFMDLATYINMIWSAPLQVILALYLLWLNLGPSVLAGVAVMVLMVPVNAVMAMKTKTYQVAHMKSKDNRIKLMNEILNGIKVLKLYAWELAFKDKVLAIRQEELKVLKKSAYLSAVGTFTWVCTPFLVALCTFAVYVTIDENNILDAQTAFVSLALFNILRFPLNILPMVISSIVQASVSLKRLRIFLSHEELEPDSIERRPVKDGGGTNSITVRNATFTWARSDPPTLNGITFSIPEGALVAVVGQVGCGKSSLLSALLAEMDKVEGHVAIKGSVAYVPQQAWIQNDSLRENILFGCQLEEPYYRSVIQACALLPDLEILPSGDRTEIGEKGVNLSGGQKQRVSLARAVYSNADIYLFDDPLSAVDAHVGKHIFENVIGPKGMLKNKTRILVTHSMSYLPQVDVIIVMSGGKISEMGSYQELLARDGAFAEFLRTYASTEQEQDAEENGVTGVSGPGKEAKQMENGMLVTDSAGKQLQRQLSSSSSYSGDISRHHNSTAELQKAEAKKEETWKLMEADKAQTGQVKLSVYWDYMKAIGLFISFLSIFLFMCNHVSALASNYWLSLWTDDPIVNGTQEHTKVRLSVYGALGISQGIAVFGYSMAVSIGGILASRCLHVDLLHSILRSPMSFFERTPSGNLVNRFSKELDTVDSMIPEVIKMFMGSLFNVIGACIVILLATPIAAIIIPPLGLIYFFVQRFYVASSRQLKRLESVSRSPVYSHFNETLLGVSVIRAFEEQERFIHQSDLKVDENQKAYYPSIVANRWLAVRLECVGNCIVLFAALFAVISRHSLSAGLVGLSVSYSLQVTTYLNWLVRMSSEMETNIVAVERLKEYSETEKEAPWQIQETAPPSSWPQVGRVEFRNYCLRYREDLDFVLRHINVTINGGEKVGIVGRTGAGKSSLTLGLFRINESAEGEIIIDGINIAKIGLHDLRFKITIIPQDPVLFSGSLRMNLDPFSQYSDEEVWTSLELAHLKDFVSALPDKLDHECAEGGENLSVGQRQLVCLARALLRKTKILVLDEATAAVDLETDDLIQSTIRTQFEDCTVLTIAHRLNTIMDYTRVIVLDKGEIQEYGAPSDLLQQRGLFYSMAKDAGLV

KBv200 [8] = test: Inhibition of calcein AM uptake in human KBv200 cells at 10 uM incubated for 10 mins by flow cytometry; assay type: functional, cell-based
[9] = Toxicity in Balb/cA nude mouse xenografted with human KBv200 cells assessed as animal mortality at 75 mg/kg, ip administered upto day 8 and measured for 14 days; assay type: organism-based; conditions: in vivo, 336 h, time 14 day
KBv200 [10] = test: Inhibition of ADR efflux in human KBv200 cells incubated for 3 hrs by fluorescence microscopy; assay type: functional, cell-based
KBv200 [11] = test: Effect on P-gp level in human KBv200 cells incubated for 24 hrs by qRT-PCR analysis; assay type: functional, cell-based
KBv200 [12] = test: Reversal fold, ratio of ADR IC50 to ADR IC50 in presence of test compound for reversal effect on P-gp-mediated multidrug resistance in human KBv200 cells incubated for 72 hrs by SRB assay; assay type: functional
[13] = Tmax in Sprague-Dawley rat at 30 mg/kg, po measured for 24 hrs by LC-MS analysis; assay type: ADME, organism-based; conditions: in vivo
[14] = Oral bioavailability in Sprague-Dawley rat at 30 mg/kg measured for 24 hrs by LC-MS analysis; assay type: ADME, organism-based; conditions: in vivo
KBv200 [15] = test: Inhibition of cell proliferation in human KBv200 cells assessed as inhibition of VNR at 10 uM incubated for 72 hrs in presence of VNR by SRB assay relative to control; assay type: functional
[16] = MRT (infinity) in Sprague-Dawley rat at 1 mg/kg, iv measured for 24 hrs by LC-MS analysis; assay type: ADME, organism-based; conditions: in vivo
[17] = AUC (infinity) in Sprague-Dawley rat at 1 mg/kg, iv measured for 24 hrs by LC-MS analysis; assay type: ADME, organism-based; conditions: in vivo
[18] = Half life in Sprague-Dawley rat at 30 mg/kg, po measured for 24 hrs by LC-MS analysis; assay type: ADME, organism-based; conditions: in vivo
[19] = AUClast in Sprague-Dawley rat at 30 mg/kg, po measured for 24 hrs by LC-MS analysis; assay type: ADME, organism-based; conditions: in vivo
KBv200 [20] = test: Inhibition of ADR uptake in human KBv200 cells at 10 uM incubated for 10 mins by flow cytometry; assay type: functional, cell-based
KBv200 [21] = test: Cytotoxicity against human KBv200 cells at 10 uM incubated for 72 hrs by SRB assay relative to control; assay type: functional
[22] = Inhibition of ADR uptake in human KBv200 cells assessed as ADR accumulation at 10 uM incubated for 10 mins by flow cytometry (reference value: 6.2 %); assay type: functional; parameters: scale not given: the % may be the effect or the level left
[23] = AUC (infinity) in Sprague-Dawley rat at 30 mg/kg, po measured for 24 hrs by LC-MS analysis; assay type: ADME, organism-based; conditions: in vivo
NCI/ADR-RES [24] = test: Reversal fold, ratio of VNR IC50 to VNR IC50 in presence of test compound for reversal effect on P-gp-mediated multidrug resistance in human NCI/ADR-RES cells incubated for 72 hrs by SRB assay; assay type: functional
KBv200 [25] = test: Reversal fold, ratio of PTX IC50 to PTX IC50 in presence of test compound for reversal effect on P-gp-mediated multidrug resistance in human KBv200 cells incubated for 72 hrs by SRB assay; assay type: functional
NCI/ADR-RES [26] = test: Reversal fold, ratio of PTX IC50 to PTX IC50 in presence of test compound for reversal effect on P-gp-mediated multidrug resistance in human NCI/ADR-RES cells incubated for 72 hrs by SRB assay; assay type: functional
KBv200 [27] = test: Antitumor activity against human KBv200 cells xenografted in Balb/cA nude mouse assessed as decrease in tumor volume at 75 mg/kg, ip administered upto day 8 and measured for 14 days in presence of VNR; assay type: functional, organism-based; conditions: time 14.0 day
[28] = AUClast in Sprague-Dawley rat at 1 mg/kg, iv measured for 24 hrs by LC-MS analysis; assay type: ADME, organism-based; conditions: in vivo
[29] = Aqueous solubility of compound at neutral pH; assay type: physicochemical
[30] = Toxicity in Balb/cA nude mouse xenografted with human KBv200 cells assessed as change in body weight at 75 mg/kg, ip administered upto day 8 and measured for 14 days; assay type: organism-based; conditions: in vivo, 336 h, time 14 day
[31] = Volume of distribution at steady state in Sprague-Dawley rat at 1 mg/kg, iv measured for 24 hrs by LC-MS analysis; assay type: ADME, organism-based; conditions: in vivo, read-out: Vdss
[32] = Inhibition of ADR efflux in human KBv200 cells assessed as ADR accumulation at 1 uM incubated for 3 hrs by flow cytometry (reference value: 25.7 %); assay type: functional; parameters: scale not given: the % may be the effect or the level left
[33] = Inhibition of ADR uptake in human KBv200 cells assessed as ADR accumulation at 1 uM incubated for 10 mins by flow cytometry (reference value: 6.2 %); assay type: functional; parameters: scale not given: the % may be the effect or the level left
KBv200 [34] = test: Inhibition of ADR uptake in human KBv200 cells at 10 uM incubated for 10 mins by fluorescence microscopy; assay type: functional, cell-based
KBv200 [35] = test: Inhibition of Rho-123 uptake in human KBv200 cells at 10 uM incubated for 10 mins by flow cytometry; assay type: functional, cell-based
NCI/ADR-RES [36] = test: Reversal fold, ratio of ADR IC50 to ADR IC50 in presence of test compound for reversal effect on P-gp-mediated multidrug resistance in human NCI/ADR-RES cells incubated for 72 hrs by SRB assay; assay type: functional
[37] = MRT (infinity) in Sprague-Dawley rat at 30 mg/kg, po measured for 24 hrs by LC-MS analysis; assay type: ADME, organism-based; conditions: in vivo
[38] = Half life in Sprague-Dawley rat at 1 mg/kg, iv measured for 24 hrs by LC-MS analysis; assay type: ADME, organism-based; conditions: in vivo
NCI/ADR-RES [39] = test: Effect on P-gp level in human NCI/ADR-RES cells at 1 to 10 uM incubated for 24 hrs by Western blot analysis; assay type: functional, cell-based; conditions: dose 1-10 µM
KBv200 [40] = test: Antitumor activity against human KBv200 cells xenografted in Balb/cA nude mouse assessed as decrease in tumor size at 75 mg/kg, ip administered upto day 8 and measured for 14 days; assay type: functional, organism-based; conditions: time 14.0 day
KBv200 [41] = test: Reversal fold, ratio of VNR IC50 to VNR IC50 in presence of test compound for reversal effect on P-gp-mediated multidrug resistance in human KBv200 cells incubated for 72 hrs by SRB assay; assay type: functional
[42] = target: T1, Broad substrate specificity ATP-binding cassette transporter ABCG2 (Homo sapiens, UniProt Q9UNQ0); test: Inhibition of BCRP (unknown origin) expressed in HEK293 cells assessed as increase in mitoxantrone accumulation by flow cytometry; assay type: cell-based
T1 sequence (Q9UNQ0 whole entry): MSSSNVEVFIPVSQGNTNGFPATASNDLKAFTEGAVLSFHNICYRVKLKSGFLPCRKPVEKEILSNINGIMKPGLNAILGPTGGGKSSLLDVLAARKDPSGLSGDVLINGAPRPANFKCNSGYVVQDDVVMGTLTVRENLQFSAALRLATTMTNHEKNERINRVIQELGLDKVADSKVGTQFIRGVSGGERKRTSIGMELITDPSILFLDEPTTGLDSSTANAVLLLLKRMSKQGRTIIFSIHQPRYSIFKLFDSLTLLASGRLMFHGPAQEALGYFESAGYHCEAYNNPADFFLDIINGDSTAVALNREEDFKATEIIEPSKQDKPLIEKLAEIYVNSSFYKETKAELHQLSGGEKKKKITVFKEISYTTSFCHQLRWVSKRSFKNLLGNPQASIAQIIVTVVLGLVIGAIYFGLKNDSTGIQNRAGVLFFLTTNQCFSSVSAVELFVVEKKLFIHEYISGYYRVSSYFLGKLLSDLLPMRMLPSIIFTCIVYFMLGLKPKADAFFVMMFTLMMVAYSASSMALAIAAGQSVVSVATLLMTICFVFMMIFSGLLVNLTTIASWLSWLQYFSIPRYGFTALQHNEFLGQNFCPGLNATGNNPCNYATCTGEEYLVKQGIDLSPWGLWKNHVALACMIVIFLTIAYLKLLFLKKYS

KBv200 [43] = test: Effect on P-gp level in human KBv200 cells at 1 to 10 uM incubated for 24 hrs by Western blot analysis; assay type: functional, cell-based; conditions: dose 1-10 µM
KBv200 [44] = test: Antitumor activity against human KBv200 cells xenografted in Balb/cA nude mouse assessed as decrease in tumor weight at 75 mg/kg, ip administered upto day 8 and measured for 14 days in presence of VNR; assay type: functional, organism-based; conditions: time 14.0 day
KBv200 [45] = test: Reversal fold, ratio of VNR IC50 to VNR IC50 in presence of test compound for human KBv200 cells incubated for 72 hrs by SRB assay; assay type: functional
[46] = Lipophilicity, logD of compound at pH 7.4; assay type: physicochemical; conditions: buffer
[47] = Inhibition of ADR efflux in human KBv200 cells assessed as ADR accumulation at 10 uM incubated for 3 hrs by flow cytometry (reference value: 25.7 %); assay type: functional; parameters: scale not given: the % may be the effect or the level left

CCC1=C[C@@H]2CN(C1)Cc1c([nH]c3ccccc13)[C@@](C(=O)OC)(c1cc3c(cc1OC)N(C)[C@H]1[C@@](O)(C(=O)OC)[C@H](OC(C)=O)[C@]4(CC)C=CCN5CC[C@]31[C@@H]54)C2 [VINORELBINE]
IC50 (NCI/ADR-RES [1]): 3720 nM | IC50 (KBv200 [2]): 298 nM | IC50 (KBv200 [3]): 205 nM | inhibition at 10 µM (KBv200 [4]): 4.9% | Activity (KBv200 [5]): Active

CC(C)[C@@H]1NC(=O)CCCCCCCCCCCC(=O)N[C@@H](Cc2ccccc2)COC1=O
Cmax [6]: 34.4 ng/mL | inhibition (INH) [7]: Active | inhibition (KBv200 [8]): Active | Activity [9]: Non-Toxic | inhibition (KBv200 [10]): Active | Activity (KBv200 [11]): inactive | Ratio IC50 (KBv200 [12]): 12.1 | Tmax [13]: 0.25 h | bioavailability [14]: 0.09% | inhibition at 10 µM (KBv200 [15]): 96.9% | MRT inf [16]: 0.75 h | AUC [17]: 1263 ng·h/mL | half-life [18]: 2.38 h | AUC(0-t) at 24 h [19]: 32.3 ng·h/mL | inhibition (KBv200 [20]): inactive | Activity (KBv200 [21]): 2.7% | Activity [22]: 86.4% | AUC(0-inf) [23]: 43.4 ng·h/mL | Ratio IC50 (NCI/ADR-RES [24]): 133.4 | Ratio IC50 (KBv200 [25]): 49.6 | Ratio IC50 (NCI/ADR-RES [26]): 159.9 | Activity (KBv200 [27]): Active | AUC(0-t) at 24 h [28]: 1260 ng·h/mL | solubility [29]: 0.64 µg/mL (≈ 1.4 µM) | Activity [30]: Non-Toxic | Vd [31]: 1.53 L/kg | Activity [32]: 33.8% | Activity [33]: 6.6% | inhibition (KBv200 [34]): inactive | inhibition (KBv200 [35]): Active | Ratio IC50 (NCI/ADR-RES [36]): 33.9 | MRT inf [37]: 3.11 h | half-life [38]: 1.09 h | Activity (NCI/ADR-RES [39]): inactive | Activity (KBv200 [40]): Active | Ratio IC50 (KBv200 [41]): 102.4 | inhibition (INH) [42]: Active | Activity (KBv200 [43]): inactive | Activity (KBv200 [44]): Active | Ratio IC50 (KBv200 [45]): 124 | logD [46]: 5 | Activity [47]: 88.6%
